Laboratory results taken from US7256286B2, “Bryostatin analogues, synthetic methods and uses” (The Board of Trustees of the Leland Stanford Junior …, priority 1999, dated 2007).

Assays:
MDA-MB-231/ATCC = assay: NCI human cancer cell line growth inhibition: MDA-MB-231/ATCC; type: cell-based; conditions: Breast
MI4 = assay: NCI human cancer cell line growth inhibition: MI4; type: cell-based; conditions: MI4, Melanoma
CAKI-1 = assay: NCI human cancer cell line growth inhibition: CAKI-1; type: cell-based; conditions: CAKI-1, Renal
HL-60(TB) = assay: cells; type: cell-based, human
CCRF-CEM = assay: NCI human cancer cell line growth inhibition: CCRF-CEM; type: cell-based; conditions: Leukemia
HCT-116 = assay: NCI human cancer cell line growth inhibition: HCT-116; type: cell-based; conditions: HCT-116, Colon
HCC-2998 = assay: NCI human cancer cell line growth inhibition: HCC-2998; type: cell-based; conditions: HCC-2998, Colon
LOX IMVI = assay: NCI human cancer cell line growth inhibition: LOX IMVI; type: cell-based; conditions: Melanoma
ACHN = assay: NCI human cancer cell line growth inhibition: ACHN; type: cell-based; conditions: Renal
SK-MEL-2 = assay: NCI human cancer cell line growth inhibition: SK-MEL-2; type: cell-based; conditions: SK-MEL-2, Melanoma
COLO 205 = assay: NCI human cancer cell line growth inhibition: COLO 205; type: cell-based; conditions: COLO 205, Colon
MCF7 = assay: NCI human cancer cell line growth inhibition: MCF7; type: cell-based; conditions: MCF7, Breast
786-0 = assay: NCI human cancer cell line growth inhibition: 786-0; type: cell-based; conditions: 786-0, Renal
SNB-19 = assay: NCI human cancer cell line growth inhibition: SNB-19; type: cell-based; conditions: SNB-19, CNS
SF-268 = assay: NCI human cancer cell line growth inhibition: SF-268; type: cell-based; conditions: SF-268, CNS
RXF-393 = assay: NCI human cancer cell line growth inhibition: RXF-393; type: cell-based; conditions: RXF-393, Renal
RPMI-8226 = assay: NCI human cancer cell line growth inhibition: RPMI-8226; type: cell-based; conditions: RPMI-8226, Leukemia
NCI-H522 = type: cell-based, human; conditions: NCI-H522, NSC Lung
SF-295 = assay: NCI human cancer cell line growth inhibition: SF-295; type: cell-based; conditions: SF-295, CNS
BT-549 = assay: NCI human cancer cell line growth inhibition: BT-549; type: cell-based; conditions: BT-549, Breast
DU-145 = assay: NCI human cancer cell line growth inhibition: DU-145; type: cell-based; conditions: DU-145, Prostate
SN12C = assay: NCI human cancer cell line growth inhibition: SN12C; type: cell-based; conditions: Renal
OVCAR-5 = assay: NCI human cancer cell line growth inhibition: OVCAR-5; type: cell-based; conditions: OVCAR-5, Ovarian
HOP-62 = assay: NCI human cancer cell line growth inhibition: HOP-62; type: cell-based; conditions: HOP-62, NSC Lung
NCI-H460 = type: cell-based, human; conditions: NCI-H460, NSC Lung
SW-620 = assay: NCI human cancer cell line growth inhibition: SW-620; type: cell-based; conditions: SW-620, Colon
OVCAR-3 = assay: NCI human cancer cell line growth inhibition: OVCAR-3; type: cell-based; conditions: OVCAR-3, Ovarian
K-562 = assay: NCI human cancer cell line growth inhibition: K-562; type: cell-based; conditions: K-562, Leukemia
SK-MEL-5 = assay: NCI human cancer cell line growth inhibition: SK-MEL-5; type: cell-based; conditions: SK-MEL-5, Melanoma
NCI-H23 = type: cell-based, human; conditions: NCI-H23, NSC Lung
TK-10 = assay: NCI human cancer cell line growth inhibition: TK-10; type: cell-based; conditions: TK-10, Renal
HS 578T = assay: NCI human cancer cell line growth inhibition: HS 578T; type: cell-based; conditions: Breast
UACC-62 = assay: NCI human cancer cell line growth inhibition: UACC-62; type: cell-based; conditions: UACC-62, Melanoma
NCI-H226 = type: cell-based, human; conditions: NCI-H226, NSC Lung
U251 = assay: NCI human cancer cell line growth inhibition: U251; type: cell-based; conditions: U251, CNS
OVCAR-8 = assay: NCI human cancer cell line growth inhibition: OVCAR-8; type: cell-based; conditions: OVCAR-8, Ovarian
IGROVI = assay: NCI human cancer cell line growth inhibition: IGROVI; type: cell-based; conditions: Ovarian
PC-3 = assay: NCI human cancer cell line growth inhibition: PC-3; type: cell-based; conditions: PC-3, Prostate
T-47D = assay: NCI human cancer cell line growth inhibition: T-47D; type: cell-based; conditions: Breast
EKVX = assay: NCI human cancer cell line growth inhibition: EKVX; type: cell-based; conditions: NSC Lung
UO-31 = assay: NCI human cancer cell line growth inhibition: UO-31; type: cell-based; conditions: UO-31, Renal
OVCAR-4 = assay: NCI human cancer cell line growth inhibition: OVCAR-4; type: cell-based; conditions: OVCAR-4, Ovarian
MDA-N = assay: NCI human cancer cell line growth inhibition: MDA-N; type: cell-based; conditions: Breast
SK-MEL-28 = assay: NCI human cancer cell line growth inhibition: SK-MEL-28; type: cell-based; conditions: SK-MEL-28, Melanoma
HT29 = assay: NCI human cancer cell line growth inhibition: HT29; type: cell-based; conditions: HT29, Colon
SNB-75 = assay: NCI human cancer cell line growth inhibition: SNB-75; type: cell-based; conditions: SNB-75, CNS
MALME-3M = assay: NCI human cancer cell line growth inhibition: MALME-3M; type: cell-based; conditions: Melanoma
MOLT-4 = assay: NCI human cancer cell line growth inhibition: MOLT-4; type: cell-based; conditions: MOLT-4, Leukemia
SK-OV-3 = assay: NCI human cancer cell line growth inhibition: SK-OV-3; type: cell-based; conditions: SK-OV-3, Ovarian
HOP-92 = assay: NCI human cancer cell line growth inhibition: HOP-92; type: cell-based; conditions: HOP-92, NSC Lung
SR = assay: NCI human cancer cell line growth inhibition: SR; type: cell-based; conditions: Leukemia
NCI/ADR-RES = type: cell-based, human; conditions: Breast
MDA-MB-435 = assay: NCI human cancer cell line growth inhibition: MDA-MB-435; type: cell-based; conditions: MDA-MB-435, Breast
UACC-257 = assay: NCI human cancer cell line growth inhibition: UACC-257; type: cell-based; conditions: UACC-257, Melanoma
A498 = assay: NCI human cancer cell line growth inhibition: A498; type: cell-based; conditions: A498, Renal
A549/ATCC = assay: NCI human cancer cell line growth inhibition: A549/ATCC; type: cell-based; conditions: NSC Lung
HCT-15 = assay: NCI human cancer cell line growth inhibition: HCT-15; type: cell-based; conditions: HCT-15, Colon
SF-539 = assay: NCI human cancer cell line growth inhibition: SF-539; type: cell-based; conditions: SF-539, CNS
KM12 = assay: NCI human cancer cell line growth inhibition: KM12; type: cell-based; conditions: KM12, Colon

CCC/C=C/C=C/C(=O)O[C@H]1/C(=C/C(=O)OC)C[C@H]2C[C@H]([C@@H](C)O)OC(=O)C[C@H](O)C[C@@H]3C[C@H](OC(C)=O)C(C)(C)[C@](O)(C[C@@H]4C/C(=C/C(=O)OC)C[C@H](/C=C/C(C)(C)[C@]1(O)O2)O4)O3 [Bryo-1, reference compound]
Growth inhibition (GI50) (MDA-MB-231/ATCC): −5.20 log of molar concentration
Growth inhibition (GI50) (MI4): >−5 log of molar concentration
Growth inhibition (GI50) (CAKI-1): −5.40 log of molar concentration
Growth inhibition (GI50) (HL-60(TB)): −5.70 log of molar concentration
Growth inhibition (GI50) (CCRF-CEM): −5.30 log of molar concentration
Growth inhibition (GI50) (HCT-116): −5.30 log of molar concentration
Growth inhibition (GI50) (HCC-2998): −5.30 log of molar concentration
Growth inhibition (GI50) (LOX IMVI): −5.10 log of molar concentration
Growth inhibition (GI50) (ACHN): −5.50 log of molar concentration
Growth inhibition (GI50) (SK-MEL-2): −5.20 log of molar concentration
Growth inhibition (GI50) (COLO 205): −5.40 log of molar concentration
Growth inhibition (GI50) (MCF7): −5.20 log of molar concentration
Growth inhibition (GI50) (786-0): −5.20 log of molar concentration
Growth inhibition (GI50) (SNB-19): >−5 log of molar concentration
Growth inhibition (GI50) (SF-268): −5.10 log of molar concentration
Growth inhibition (GI50) (RXF-393): −5.30 log of molar concentration
Growth inhibition (GI50) (RPMI-8226): >−5 log of molar concentration
Growth inhibition (GI50) (NCI-H522): >−5 log of molar concentration
Growth inhibition (GI50) (SF-295): −5.20 log of molar concentration
Growth inhibition (GI50) (BT-549): −5.10 log of molar concentration
Growth inhibition (GI50) (DU-145): >−5 log of molar concentration
Growth inhibition (GI50) (SN12C): −5.10 log of molar concentration
Growth inhibition (GI50) (OVCAR-5): >−5 log of molar concentration
Growth inhibition (GI50) (HOP-62): >−5 log of molar concentration
Growth inhibition (GI50) (NCI-H460): −5.60 log of molar concentration
Growth inhibition (GI50) (SW-620): −5.50 log of molar concentration
Growth inhibition (GI50) (OVCAR-3): −5.10 log of molar concentration
Growth inhibition (GI50) (K-562): −5.40 log of molar concentration
Growth inhibition (GI50) (SK-MEL-5): −5.70 log of molar concentration
Growth inhibition (GI50) (NCI-H23): >−5 log of molar concentration
Growth inhibition (GI50) (TK-10): >−5 log of molar concentration
Growth inhibition (GI50) (HS 578T): −5.2 log of molar concentration
Growth inhibition (GI50) (UACC-62): −5.30 log of molar concentration
Growth inhibition (GI50) (NCI-H226): >−5 log of molar concentration
Growth inhibition (GI50) (U251): −5.10 log of molar concentration
Growth inhibition (GI50) (OVCAR-8): −5.10 log of molar concentration
Growth inhibition (GI50) (IGROVI): −5.30 log of molar concentration
Growth inhibition (GI50) (PC-3): −5.30 log of molar concentration
Growth inhibition (GI50) (T-47D): −5.20 log of molar concentration
Growth inhibition (GI50) (EKVX): −5.30 log of molar concentration
Growth inhibition (GI50) (UO-31): −5.60 log of molar concentration
Growth inhibition (GI50) (OVCAR-4): −5.50 log of molar concentration
Growth inhibition (GI50) (MDA-N): −5.10 log of molar concentration
Growth inhibition (GI50) (SK-MEL-28): −5.10 log of molar concentration
Growth inhibition (GI50) (HT29): −5.30 log of molar concentration
Growth inhibition (GI50) (SNB-75): −5.50 log of molar concentration
Growth inhibition (GI50) (MALME-3M): −5.20 log of molar concentration
Growth inhibition (GI50) (MOLT-4): −5.50 log of molar concentration
Growth inhibition (GI50) (SK-OV-3): −5.10 log of molar concentration
Growth inhibition (GI50) (HOP-92): −5.30 log of molar concentration
Growth inhibition (GI50) (SR): >−5 log of molar concentration
Growth inhibition (GI50) (NCI/ADR-RES): >−5 log of molar concentration
Growth inhibition (GI50) (MDA-MB-435): −5.10 log of molar concentration
Growth inhibition (GI50) (UACC-257): −5.10 log of molar concentration
Growth inhibition (GI50) (A498): >−5 log of molar concentration
Growth inhibition (GI50) (A549/ATCC): −5.20 log of molar concentration
Growth inhibition (GI50) (HCT-15): >−5 log of molar concentration
Growth inhibition (GI50) (SF-539): >−5 log of molar concentration
Growth inhibition (GI50) (KM12): −5.20 log of molar concentration
